# Results taken from ChEMBL document CHEMBL3885861, “Open TG-GATES”.
# Species: Rattus norvegicus
# Assay: Open TG-GATES - Regimen: Single
# Assay type: toxicity, organism-based, Sprague-Dawley
# Set-up: regimen Single, gender Male, age 6 weeks
# Conditions: in vivo, po, 30 mg/kg, route gavage, dose level Low; for APTT / Bas / Eos / Fbg / Hb / Ht / Lym / MCH / MCHC / MCV / Mono / Neu / PT / Plat / RBC / Ret / WBC: tissue Blood; for KIDNEY_L / KIDNEY_R / KIDNEY_TOTAL: tissue Kidney; for LIVER: tissue Liver; for A/G / ALP / ALT / AST / BUN / CRE / Ca / Cl / DBIL / GLC / IP / K / LDH / Na / PL / RALB / TBIL / TC / TG / TP / gamma-GTP: tissue Plasma
structure (smiles),measurement,setting,value
C[C@]12CCC(=O)C=C1CC[C@@H]1[C@@H]2CC[C@@]2(C)[C@H]1CC[C@]2(C)O [METHYLTESTOSTERONE],TERMINAL_BW,3 h,203.4 g
same,APTT,3 h,15.6 s
same,Bas,3 h,0%
same,Eos,3 h,1%
same,Fbg,3 h,292.4 mg/dL
same,Hb,3 h,12.7 g/dL
same,Ht,3 h,37.1%
same,Lym,3 h,77%
same,MCH,3 h,21.2 pg
same,MCHC,3 h,34.2%
same,MCV,3 h,61.9 fL
same,Mono,3 h,3.8%
same,Neu,3 h,17%
same,PT,3 h,13.1 s
same,Plat,3 h,105.6 x10_4/uL
same,RBC,3 h,599 x10_4/ul
same,Ret,3 h,8.5%
same,WBC,3 h,69.9 x10_2/uL
same,KIDNEY_L,3 h,0.9 g
same,KIDNEY_R,3 h,0.9 g
same,KIDNEY_TOTAL,3 h,1.8 g
same,LIVER,3 h,8.6 g
same,A/G,3 h,0.9
same,ALP,3 h,1715.8 IU/L
same,ALT,3 h,48.8 IU/L
same,AST,3 h,82.6 IU/L
same,BUN,3 h,9.8 mg/dL
same,CRE,3 h,0.2 mg/dL
same,Ca,3 h,11 mg/dL
same,Cl,3 h,106 meq/L
same,DBIL,3 h,0.012 mg/dL
same,GLC,3 h,181.8 mg/dL
same,IP,3 h,9.1 mg/dL
same,K,3 h,4.4 meq/L
same,LDH,3 h,76.6 IU/L
same,Na,3 h,141.4 meq/L
same,PL,3 h,131 mg/dL
same,RALB,3 h,2.5 g/dL
same,TBIL,3 h,0.048 mg/dL
same,TC,3 h,72.8 mg/dL
same,TG,3 h,41.8 mg/dL
same,TP,3 h,5.4 g/dL
same,gamma-GTP,3 h,1 IU/L
same,TERMINAL_BW,6 h,202.1 g
same,APTT,6 h,17 s
same,Bas,6 h,0.2%
same,Eos,6 h,1%
same,Fbg,6 h,281 mg/dL
same,Hb,6 h,13.2 g/dL
same,Ht,6 h,38.6%
same,Lym,6 h,74.8%
same,MCH,6 h,21.4 pg
same,MCHC,6 h,34.1%
same,MCV,6 h,62.9 fL
same,Mono,6 h,3%
same,Neu,6 h,20.8%
same,PT,6 h,13.3 s
same,Plat,6 h,112.5 x10_4/uL
same,RBC,6 h,614.8 x10_4/ul
same,Ret,6 h,8.1%
same,WBC,6 h,69.8 x10_2/uL
same,KIDNEY_L,6 h,0.9 g
same,KIDNEY_R,6 h,0.9 g
same,KIDNEY_TOTAL,6 h,1.8 g
same,LIVER,6 h,8 g
same,A/G,6 h,0.9
same,ALP,6 h,1451.8 IU/L
same,ALT,6 h,44.8 IU/L
same,AST,6 h,77.4 IU/L
same,BUN,6 h,9.4 mg/dL
same,CRE,6 h,0.2 mg/dL
same,Ca,6 h,10.7 mg/dL
same,Cl,6 h,107.2 meq/L
same,DBIL,6 h,0.01 mg/dL
same,GLC,6 h,181 mg/dL
same,IP,6 h,10 mg/dL
same,K,6 h,4.2 meq/L
same,LDH,6 h,68.2 IU/L
same,Na,6 h,142.2 meq/L
same,PL,6 h,120.8 mg/dL
same,RALB,6 h,2.6 g/dL
same,TBIL,6 h,0.042 mg/dL
same,TC,6 h,70.6 mg/dL
same,TG,6 h,32.8 mg/dL
same,TP,6 h,5.4 g/dL
same,gamma-GTP,6 h,1.2 IU/L
same,TERMINAL_BW,9 h,203.1 g
same,APTT,9 h,16.9 s
same,Bas,9 h,0%
same,Eos,9 h,1%
same,Fbg,9 h,287.4 mg/dL
same,Hb,9 h,13.2 g/dL
same,Ht,9 h,38.3%
same,Lym,9 h,77.2%
same,MCH,9 h,21.4 pg
same,MCHC,9 h,34.6%
same,MCV,9 h,61.7 fL
same,Mono,9 h,2.6%
same,Neu,9 h,18.4%
same,PT,9 h,13.3 s
same,Plat,9 h,113.2 x10_4/uL
same,RBC,9 h,620.8 x10_4/ul
same,Ret,9 h,8.2%
same,WBC,9 h,66.5 x10_2/uL
same,KIDNEY_L,9 h,0.9 g
same,KIDNEY_R,9 h,0.9 g
same,KIDNEY_TOTAL,9 h,1.7 g
same,LIVER,9 h,7.8 g
same,A/G,9 h,0.9
same,ALP,9 h,1527.6 IU/L
same,ALT,9 h,39.2 IU/L
same,AST,9 h,74.6 IU/L
same,BUN,9 h,8.8 mg/dL
same,CRE,9 h,0.2 mg/dL
same,Ca,9 h,10.6 mg/dL
same,Cl,9 h,107.6 meq/L
same,DBIL,9 h,0.01 mg/dL
same,GLC,9 h,185.2 mg/dL
same,IP,9 h,10.9 mg/dL
same,K,9 h,3.9 meq/L
same,LDH,9 h,65.6 IU/L
same,Na,9 h,142.8 meq/L
same,PL,9 h,120 mg/dL
same,RALB,9 h,2.6 g/dL
same,TBIL,9 h,0.054 mg/dL
same,TC,9 h,68.4 mg/dL
same,TG,9 h,26 mg/dL
same,TP,9 h,5.4 g/dL
same,gamma-GTP,9 h,1.6 IU/L
same,TERMINAL_BW,24 h,208 g
same,APTT,24 h,19.7 s
same,Bas,24 h,0%
same,Eos,24 h,0.8%
same,Fbg,24 h,277 mg/dL
same,Hb,24 h,13 g/dL
same,Ht,24 h,37.9%
same,Lym,24 h,77%
same,MCH,24 h,21 pg
same,MCHC,24 h,34.2%
same,MCV,24 h,61.3 fL
same,Mono,24 h,2.8%
same,Neu,24 h,19%
same,PT,24 h,13.1 s
same,Plat,24 h,120.3 x10_4/uL
same,RBC,24 h,619.4 x10_4/ul
same,Ret,24 h,7.5%
same,WBC,24 h,80.6 x10_2/uL
same,KIDNEY_L,24 h,0.9 g
same,KIDNEY_R,24 h,0.9 g
same,KIDNEY_TOTAL,24 h,1.8 g
same,LIVER,24 h,9.4 g
same,A/G,24 h,0.9
same,ALP,24 h,1796.2 IU/L
same,ALT,24 h,55.8 IU/L
same,AST,24 h,81.2 IU/L
same,BUN,24 h,13.8 mg/dL
same,CRE,24 h,0.2 mg/dL
same,Ca,24 h,11.1 mg/dL
same,Cl,24 h,106.8 meq/L
same,DBIL,24 h,0.016 mg/dL
same,GLC,24 h,184.6 mg/dL
same,IP,24 h,8.3 mg/dL
same,K,24 h,4.1 meq/L
same,LDH,24 h,82 IU/L
same,Na,24 h,141.4 meq/L
same,PL,24 h,134.2 mg/dL
same,RALB,24 h,2.7 g/dL
same,TBIL,24 h,0.028 mg/dL
same,TC,24 h,68.2 mg/dL
same,TG,24 h,84.2 mg/dL
same,TP,24 h,5.7 g/dL
same,gamma-GTP,24 h,1 IU/L
